Data: ChEMBL document CHEMBL1142305, “The effect of flavonoid derivatives on doxorubicin transport and metabolism” (Bioorg Med Chem, 2008)
pIC50: −log10 of the molar value.

Legend:
MDA-MB-435 [1] = test: Cytotoxicity against human MDA-MB-435 cells at 10 uM after 96 hrs by MTT assay; format: cell-based; settings: mda-mb-435, 96 h
Liver [2] = test: Effect on doxorubicin metabolism in human liver cytosolic fractions assessed as inhibition of formation of doxorubicinol at 30 uM; format: ADME, subcellular; settings: cytosol
[3] = Effect on drug efflux in human NCI-ADR-RES cells at 100 nM upto 120 mins; format: ADME, cell-based; settings: 2 h, 0.1 µM
MDA-MB-435 [4] = test: Effect on drug uptake in human MDA-MB-435 cells in presence of 10 uM verapamil; format: ADME, cell-based
[5] = Increase in drug uptake in human NCI-ADR-RES cells in presence of 100 uM verapamil; format: ADME, cell-based
MDA-MB-435 [6] = test: Effect on drug efflux in human MDA-MB-435 cells at 100 nM upto 120 mins; format: ADME, cell-based; settings: mda-mb-435, 2 h, 0.1 µM
MDA-MB-435 [7] = test: Drug uptake in human MDA-MB-435 cells in presence of 100 uM MK-571; format: ADME, cell-based
[8] = Inhibition of drug efflux in human NCI-ADR-RES cells at 100 nM after 120 mins in presence of 100 uM verapamil; format: ADME, cell-based; settings: 2 h, 0.1 µM
[9] = Effect on drug uptake in human NCI-ADR-RES cells in presence of 10 uM verapamil; format: ADME, cell-based
MDA-MB-435 [10] = test: Increase in drug uptake in human MDA-MB-435 cells in presence of 100 uM verapamil; format: ADME, cell-based
Liver [11] = test: Metabolic stability in human liver cytosolic fraction assessed as formation of doxorubicinol after 60 mins; format: ADME, subcellular; settings: cytosol, 1 h
Liver microsomes = test: Metabolic stability in human liver microsomal fraction assessed as formation of doxorubicin aglycone after 60 mins; format: ADME, Microsome; settings: 1 h
[12] = Effect on [14C]DOX efflux in human NCI-ADR-RES cells; format: ADME, cell-based
[13] = Decrease in [14C]DOX accumulation in human NCI-ADR-RES cells at 30 uM after 120 mins; format: ADME, cell-based; set-up: scale not given: the % may be the effect or the level left; settings: 2 h
Liver [14] = test: Effect on doxorubicin metabolism in human liver cytosolic fractions assessed as inhibition of formation of doxorubicinol; format: ADME, subcellular, Cytosol

O=C(/C=C/c1ccc(I)cc1)c1c(O)cc(O)cc1O
Activity (MDA-MB-435 [1]): Toxic | Activity (Liver [2]): Active

COc1cc(O)c2c(c1)O/C(=C\c1ccc(Cl)cc1)C2=O
Activity (MDA-MB-435 [1]): Toxic

C[C@@H]1O[C@@H](O[C@H]2C[C@](O)(C(=O)CO)Cc3c(O)c4c(c(O)c32)C(=O)c2c(O[14CH3])cccc2C4=O)C[C@H](N)[C@@H]1O
Activity [3]: 66% | Activity (MDA-MB-435 [4]): Not Active | Fold change [5]: 7.6 | Activity (MDA-MB-435 [6]): 23% | Activity (MDA-MB-435 [7]): Not Active | Activity [8]: Active | Activity [9]: Not Active | Fold change (MDA-MB-435 [10]): 3.7

COc1cc(O)c2c(c1)O/C(=C\c1ccccc1)C2=O
Activity (MDA-MB-435 [1]): Toxic | Activity (Liver [2]): Active

COc1cc(OC)c2c(c1)O/C(=C\c1cc(OC)c(OC)cc1OC)C2=O
Activity (MDA-MB-435 [1]): Toxic

CCc1ccc(/C=C2\Oc3cc(OC)cc(O)c3C2=O)cc1
Activity (MDA-MB-435 [1]): Toxic

COc1cccc2c1C(=O)c1c(O)c3c(c(O)c1C2=O)C[C@@](O)(C(=O)CO)C[C@@H]3O[C@H]1C[C@H](N)[C@H](O)[C@H](C)O1 [DOXORUBICIN]
Activity (Liver [11]): 15.1% | Activity (Liver microsomes): 4.63%

O=C1C[C@@H](c2ccc(O)c(O)c2)Oc2cc(O)cc(O)c21 [ERIODICTYOL]
Activity (MDA-MB-435 [1]): Toxic

O=c1c(O)c(-c2ccc(O)c(O)c2)oc2cc(O)ccc12 [FISETIN]
Activity (MDA-MB-435 [1]): Toxic

O=c1c(O)c(-c2ccc(O)c(O)c2)oc2cc(O)cc(O)c12 [QUERCETIN]
Activity [12]: Not Active | Activity (MDA-MB-435 [1]): Toxic | Activity [13]: 51.3% | pIC50 (Liver [14]): 4.79
